Bounds are passed on as bounds.

The target of this assay is T1, CDK4 (Homo sapiens, UniProt P11802).
T1 construct: endogenous in cells; host or cells: C33A
The assay can be described thus: CDK4 Degradation Assay, Western blotting. The format is cell-based. The protocol:
C33A cells were purchased from American Type Culture Collection (ATCC) and were cultured in Dulbecco's Modified Eagle Medium (DMEM) containing 10% (v/v) fetal bovine serum (FBS) and maintained at 37° C. with 5% CO2. 22RV1 cells were purchased from the ATCC and were cultured in RPMI-1640 Medium containing 10% (v/v) FBS and maintained at 37° C. with 5% CO2. HEK293T cells were obtained from the UC Berkeley Cell Culture Facility and were cultured in DMEM containing 10% (v/v) FBS and maintained at 37° C. with 5% CO2. K562 cells were obtained from the UC Berkeley Cell Culture Facility and were cultured in Iscove's Modified Dulbecco's Medium (IMDM) containing 10% (v/v) FBS and maintained at 37° C. with 5% CO2. MV-4-11 cells were obtained from the ATCC and were cultured in IMDM containing 10% (v/v) FBS and maintained at 37° C. with 5% CO2. A549 cells were obtained from the ATCC and were cultured in F-12K Medium containing 10% (v/v) FBS and maintained at 37° C. with 5% CO2. Mino cells were obtained from the ATCC and were cultured in RPMI-1640 Medium containing 10% (v/v) FBS and maintained at 37° C. with 5% CO2. LNCaP cells were obtained from the ATCC and were cultured in RPMI-1640 Medium containing 10% (v/v) FBS and maintained at 37° C. with 5% CO2. Unless otherwise specified, all cell culture materials were purchased from Gibco. It is not known whether HEK293T cells are from male or female origin.
Cells were washed twice with cold PBS, scraped, and pelleted by centrifugation (700 g, 5 min, 4° C.). Pellets were resuspended in PBS, sonicated, clarified by centrifugation (12,000 g, 10 min, 4° C.), and lysate was transferred to new low-adhesion microcentrifuge tubes. Proteome concentrations were determined using BCA assay and lysate was diluted to appropriate working concentrations.
Proteins were resolved by SDS/PAGE and transferred to nitrocellulose membranes using the Trans-Blot Turbo transfer system (Bio-Rad). Membranes were blocked with 5% BSA in Tris-buffered saline containing Tween 20 (TBS-T) solution for 30 min at RT, washed in TBS-T, and probed with primary antibody diluted in recommended diluent per manufacturer overnight at 4° C. After 3 washes with TBS-T, the membranes were incubated in the dark with IR680- or IR800-conjugated secondary antibodies at 1:10,000 dilution in 5% BSA in TBS-T at RT for 1 h. After 3 additional washes with TBST, blots were visualized using an Odyssey Li-Cor fluorescent scanner. The membranes were stripped using ReBlot Plus Strong Antibody Stripping Solution (EMD Millipore) when additional primary antibody incubations were performed. Antibodies used in this study were CDK4 (Abcam ab108357), Vinculin (Abcam ab129002), GAPDH (Cell Signaling Technology 14C10), RNF126 (Santa Cruz Biotechnology sc-376005), BRD4 (Abcam ab128874), Beta Actin (Cell Signaling Technology 13E5), PDE5 (Abcam ab259945), AR-V7 (Abcam ab273500), c-Abl (Santa Cruz Biotechnology sc-23), SMARCA2 (Abcam ab240648), LRRK2 (Abcam ab133474), BTK (Cell Signaling Technology D3H5), Androgen Receptor (Abcam ab133273).
On the technique in general: A western blot detects proteins with antibodies after separation by electrophoresis.
As usually defined, the DC50 is the concentration giving 50% degradation. Low values mean a more potent degrader, high ones a less potent degrader. For `CN(C)C(=O)c1cc2cnc(Nc3ccc(N4CCN(C(=O)/C=C/C(=O)c5cccc(C(F)(F)F)c5)CC4)cn3)nc2n1C1CCCC1` [Compound 165, (E)-7-cyclopentyl-N,N-dimethyl-2-((5-(4-(4-oxo-4-(3-(trifluoromethyl)phenyl)but-2-enoyl)piperazin-1-yl)pyridin-2-yl)amino)-7H-pyrrolo[2,3-d]pyrimidine-6-carboxamide], the DC50 is greater than 10 µM.
Consider `CN(C)C(=O)c1cc2cnc(Nc3ccc(N4CCN(C(=O)/C=C/C(=O)c5ccc6c(c5)OCCO6)CC4)cn3)nc2n1C1CCCC1` [Compound 255, (E)-7-cyclopentyl-2-((5-(4-(4-(2,3-dihydrobenzo[b][1,4]dioxin-6-yl)-4-oxobut-2-enoyl)piperazin-1-yl)pyridin-2-yl)amino)-N,N-dimethyl-7H-pyrrolo[2,3-d]pyrimidine-6-carboxamide], for which the DC50 was greater than 10 µM.
With `COc1ccc(C(=O)/C=C(\C#N)C(=O)N2CCN(c3ccc(Nc4ncc5cc(C(=O)N(C)C)n(C6CCCC6)c5n4)nc3)CC2)cc1` [Compound 256, (E)-2-((5-(4-(2-cyano-4-(4-methoxyphenyl)-4-oxobut-2-enoyl)piperazin-1-yl)pyridin-2-yl)amino)-7-cyclopentyl-N,N-dimethyl-7H-pyrrolo[2,3-d]pyrimidine-6-carboxamide], the DC50 was greater than 10 µM.
The molecule `CN(C)C(=O)c1cc2cnc(Nc3ccc(N4CCN(C(=O)/C=C/C(=O)c5ccc6c(c5)NC(=O)CO6)CC4)cn3)nc2n1C1CCCC1` [Compound 257, (E)-7-cyclopentyl-N,N-dimethyl-2-((5-(4-(4-oxo-4-(3-oxo-3,4-dihydro-2H-benzo[b][1,4]oxazin-6-yl)but-2-enoyl)piperazin-1-yl)pyridin-2-yl)amino)-7H-pyrrolo[2,3-d]pyrimidine-6-carboxamide] returned a DC50 greater than 10 µM.
In turn, `CN(C)C(=O)c1cc2cnc(Nc3ccc(N4CCN(C(=O)/C=C/C(=O)c5ccccc5)CC4)cn3)nc2n1C1CCCC1` [Compound 258, (E)-7-cyclopentyl-N,N-dimethyl-2-((5-(4-(4-oxo-4-phenylbut-2-enoyl)piperazin-1-yl)pyridin-2-yl)amino)-7H-pyrrolo[2,3-d]pyrimidine-6-carboxamide] registered a 50% degradation concentration (DC50) greater than 10 µM.
Molecule `CN(C)C(=O)c1cc2cnc(Nc3ccc(N4CCN(C(=O)/C=C/C(=O)c5cccc(Br)c5)CC4)cn3)nc2n1C1CCCC1` [Compound 259, (E)-2-((5-(4-(4-(3-bromophenyl)-4-oxobut-2-enoyl)piperazin-1-yl)pyridin-2-yl)amino)-7-cyclopentyl-N,N-dimethyl-7H-pyrrolo[2,3-d]pyrimidine-6-carboxamide] registered a DC50 greater than 10 µM.
In turn, `CN(C)C(=O)c1cc2cnc(Nc3ccc(N4CCN(C(=O)/C=C/C(=O)c5ccc6c(c5)OCC6)CC4)cn3)nc2n1C1CCCC1` [Compound 260, (E)-7-cyclopentyl-2-((5-(4-(4-(2,3-dihydrobenzofuran-6-yl)-4-oxobut-2-enoyl)piperazin-1-yl)pyridin-2-yl)amino)-N,N-dimethyl-7H-pyrrolo[2,3-d]pyrimidine-6-carboxamide] showed a DC50 greater than 10 µM.
As for `CN(C)C(=O)c1cc2cnc(Nc3ccc(N4CCN(C(=O)/C=C/C(=O)c5ccc6c(c5)CCO6)CC4)cn3)nc2n1C1CCCC1` [Compound 261, (E)-7-cyclopentyl-2-((5-(4-(4-(2,3-dihydrobenzofuran-5-yl)-4-oxobut-2-enoyl)piperazin-1-yl)pyridin-2-yl)amino)-N,N-dimethyl-7H-pyrrolo[2,3-d]pyrimidine-6-carboxamide], the figure is greater than 10 µM; as for `Cc1ccc(C(=O)/C=C/C(=O)N2CCN(c3ccc(Nc4ncc5cc(C(=O)N(C)C)n(C6CCCC6)c5n4)nc3)CC2)cc1` [Compound 262, (E)-7-cyclopentyl-N,N-dimethyl-2-((5-(4-(4-oxo-4-(p-tolyl)but-2-enoyl)piperazin-1-yl)pyridin-2-yl)amino)-7H-pyrrolo[2,3-d]pyrimidine-6-carboxamide], 1 to 10 µM; as for `Cc1ccccc1C(=O)/C=C/C(=O)N1CCN(c2ccc(Nc3ncc4cc(C(=O)N(C)C)n(C5CCCC5)c4n3)nc2)CC1` [Compound 263, (E)-7-cyclopentyl-N,N-dimethyl-2-((5-(4-(4-oxo-4-(o-tolyl)but-2-enoyl)piperazin-1-yl)pyridin-2-yl)amino)-7H-pyrrolo[2,3-d]pyrimidine-6-carboxamide], greater than 10 µM.
The molecule `COc1ccc(C(=O)/C=C/C(=O)N2CCN(c3ccc(Nc4ncc5cc(C(=O)N(C)C)n(C6CCCC6)c5n4)nc3)CC2)c(F)c1` [Compound 264, (E)-7-cyclopentyl-2-((5-(4-(4-(2-fluoro-4-methoxyphenyl)-4-oxobut-2-enoyl)piperazin-1-yl)pyridin-2-yl)amino)-N,N-dimethyl-7H-pyrrolo[2,3-d]pyrimidine-6-carboxamide] returned a DC50 greater than 10 µM.
Turning to `COc1cc(F)ccc1C(=O)/C=C/C(=O)N1CCN(c2ccc(Nc3ncc4cc(C(=O)N(C)C)n(C5CCCC5)c4n3)nc2)CC1` [Compound 265, (E)-7-cyclopentyl-2-((5-(4-(4-(4-fluoro-2-methoxyphenyl)-4-oxobut-2-enoyl)piperazin-1-yl)pyridin-2-yl)amino)-N,N-dimethyl-7H-pyrrolo[2,3-d]pyrimidine-6-carboxamide], the 50% degradation concentration (DC50) is greater than 10 µM.
As for `COc1ccc(C(=O)/C=C/C(=O)N2CCN(c3ccc(Nc4ncc5cc(C(=O)N(C)C)n(C6CCCC6)c5n4)nc3)CC2)cc1F` [Compound 266, (E)-7-cyclopentyl-2-((5-(4-(4-(3-fluoro-4-methoxyphenyl)-4-oxobut-2-enoyl)piperazin-1-yl)pyridin-2-yl)amino)-N,N-dimethyl-7H-pyrrolo[2,3-d]pyrimidine-6-carboxamide], the figure is greater than 10 µM.
As to `CN(C)C(=O)c1cc2cnc(Nc3ccc(N4CCN(C(=O)/C=C/C(=O)c5ccc(C#N)cc5)CC4)cn3)nc2n1C1CCCC1` [Compound 267, (E)-2-((5-(4-(4-(4-cyanophenyl)-4-oxobut-2-enoyl)piperazin-1-yl)pyridin-2-yl)amino)-7-cyclopentyl-N,N-dimethyl-7H-pyrrolo[2,3-d]pyrimidine-6-carboxamide], the DC50 is greater than 10 µM.
As for `COc1ccc(C(=O)/C=C/C(=O)N2CCN(c3ccc(Nc4ncc5cc(C(=O)N(C)C)n(C6CCCC6)c5n4)nc3)CC2)c(Cl)c1` [Compound 268, (E)-2-((5-(4-(4-(2-chloro-4-methoxyphenyl)-4-oxobut-2-enoyl)piperazin-1-yl)pyridin-2-yl)amino)-7-cyclopentyl-N,N-dimethyl-7H-pyrrolo[2,3-d]pyrimidine-6-carboxamide], the figure is greater than 10 µM; as for `COc1ccc(C(=O)/C=C/C(=O)N[C@H]2C[C@@H](Nc3ccc(Nc4ncc5cc(C(=O)N(C)C)n(C6CCCC6)c5n4)nc3)C2)cc1` [Compound 269, 7-cyclopentyl-2-((5-(((1s,3s)-3-((E)-4-(4-methoxyphenyl)-4-oxobut-2-enamido)cyclobutyl)amino)pyridin-2-yl)amino)-N,N-dimethyl-7H-pyrrolo[2,3-d]pyrimidine-6-carboxamide], greater than 10 µM.
`COc1ccc(C(=O)/C=C/C(=O)N[C@H]2C[C@H](Nc3ccc(Nc4ncc5cc(C(=O)N(C)C)n(C6CCCC6)c5n4)nc3)C2)cc1` [Compound 270, 7-cyclopentyl-2-((5-(((1r,3r)-3-((E)-4-(4-methoxyphenyl)-4-oxobut-2-enamido)cyclobutyl)amino)pyridin-2-yl)amino)-N,N-dimethyl-7H-pyrrolo[2,3-d]pyrimidine-6-carboxamide]: the 50% degradation concentration (DC50) is greater than 10 µM.
Molecule `COc1ccc(C(=O)/C=C/C(=O)N2CCN(c3ccc(Nc4ncc5cc(C(=O)N(C)C)n(C6CCCC6)c5n4)nc3)[C@H](C)C2)cc1` [Compound 271, (R,E)-7-cyclopentyl-2-((5-(4-(4-(4-methoxyphenyl)-4-oxobut-2-enoyl)-2-methylpiperazin-1-yl)pyridin-2-yl)amino)-N,N-dimethyl-7H-pyrrolo[2,3-d]pyrimidine-6-carboxamide] displayed a DC50 of 1 to 10 µM.

For the origin of these results see US20260200939A1, “MOLECULAR GLUE DEGRADER COMPOUNDS AND USES THEREOF” (Novartis AG, priority 2022, published 2026).
